From patent publication US9416124B2, “Substituted 2-alkyl-1-OXO-N-phenyl-3-heteroaryl-1,2,3,4-tetrahydroisoquinoline-4-carboxamides for antimalarial therapies” (ST. JUDE CHILDREN'S RESEARCH HOSPITAL, priority 2011, dated 2016) come the findings set out here.

SMILES strings stand for the structures.

The first assay deals with P. falciparum 3D7. As to the kind of experiment: P. falciparum drug susceptibility assay (3D7). Type of assay: cell-based, Plasmodium falciparum. The conditions noted are these: Plasmodium falciparum; 3D7 strain; racemate unless indicated; read-out: 3D7_EC50. The protocol: Parasites were grown as previously described in Mallari, J. P., Guiguemde, W. A., and Guy, R. K., Antimalarial activity of thiosemicarbazones and purine derived nitriles, Bioorg Med Chem Lett 19 (13), 3546 (2009). […] DMSO inhibitor stock solutions were pin-transferred (V&P Scientific) into the assay plate and background fluorescence was measured in both relevant channels (485 nm /535 nm, 612 nm /665 nm) in an Envision plate reader (PerkinElmer). Then 20 μl of a synchronized culture suspension (1% rings, 10% hematocrit) were added per well, thus making a final hematocrit and parasitemia of 5% and 1% respectively. Assay plates were incubated for 72 h and parasitemia was determined based on a modified protocol. (Smilkstein, M. et al., Simple and inexpensive fluorescence-based technique for high-throughput antimalarial drug screening. Antimicrob Agents Chemother 48 (5), 1803 (2004)). Briefly, 5 μl of mixed DNA dye solution in RPMI (5X SYBR Green I, 1 μM YOYO-3, 1% v/v Triton X-100, 1 mg/ml saponin) were added per well, assay plates were shaken for 30 s at 2000 rpm, incubated in the dark for 4 h, then read as previously described.
On to `CC(C)CN1C(=O)c2ccccc2[C@H](C(=O)Nc2cccc(C#N)c2)[C@H]1c1cnn(C)c1` (racemic) [Example 15, N-(3-cyanophenyl)-2-isobutyl-3-(1-methyl-1H-pyrazol-4-yl)-1-oxo-1,2,3,4-tetrahydroisoquinoline-4-carboxamide], for which the EC50 is 36 nM. With `N#Cc1cc(Cl)cc(NC(=O)[C@H]2c3ccccc3C(=O)N(CC(F)(F)F)[C@@H]2c2cn[nH]c2)c1` (racemic) [Example 8, N-(3-chloro-5-cyanophenyl)-1-oxo-3-(1H-pyrazol-4-yl)-2-(2,2,2-trifluoroethyl)-1,2,3,4-tetrahydroisoquinoline-4-carboxamide], the EC50 worked out at 26 nM. The same measure, in the same setting: then `CC(C)CN1C(=O)c2ccccc2[C@H](C(=O)Nc2ccc(F)c(OC(F)(F)F)c2)[C@H]1c1cccnc1` (racemic) [Example 35, N-(4-fluoro-3-(trifluoromethoxy)phenyl)-2-isobutyl-1-oxo-3-(pyridin-3-yl)-1,2,3,4-tetrahydroisoquinoline-4-carboxamide], with 63 nM; and `CC(C)CN1C(=O)c2ccccc2[C@H](C(=O)Nc2cccc(OC(F)(F)F)c2)[C@H]1c1cccnc1` (racemic) [Example 29, 2-isobutyl-1-oxo-3-(pyridin-3-yl)-N-(3-(trifluoromethoxy)phenyl)-1,2,3,4-tetrahydroisoquinoline-4-carboxamide], with 25 nM. Take `CC(C)CN1C(=O)c2ccccc2[C@H](C(=O)Nc2ccc(F)c(OC(F)(F)F)c2)[C@H]1c1cnn(C)c1` (racemic) [Example 33, N-(4-fluoro-3-(trifluoromethoxy)phenyl)-2-isobutyl-3-(1-methyl-1H-pyrazol-4-yl)-1-oxo-1,2,3,4-tetrahydroisoquinoline-4-carboxamide]: the EC50 was determined as 17 nM. Same read-out and setting: the result for `O=C(Nc1cc(F)cc(OC(F)(F)F)c1)[C@H]1c2ccccc2C(=O)N(CC(F)(F)F)[C@@H]1c1cccnc1` (racemic) [Example 42, N-(3-fluoro-5-(trifluoromethoxy)phenyl)-1-oxo-3-(pyridin-3-yl)-2-(2,2,2-trifluoroethyl)-1,2,3,4-tetrahydroisoquinoline-4-carboxamide] reads 144 nM. `CC(C)CN1C(=O)c2ccc(F)cc2[C@H](C(=O)Nc2cc(F)cc(C#N)c2)[C@H]1c1cnn(C)c1` (racemic) [Example 48, N-(3-cyano-5-fluorophenyl)-6-fluoro-2-isobutyl-3-(1-methyl-1H-pyrazol-4-yl)-1-oxo-1,2,3,4-tetrahydroisoquinoline-4-carboxamide]: the EC50 was found to be 19 nM. Still for that read-out and setting: the result for `N#Cc1cc(F)cc(NC(=O)[C@H]2c3ccccc3C(=O)N(CC(F)(F)F)[C@@H]2c2cn[nH]c2)c1` (racemic) [Example 20, N-(3-cyano-5-fluorophenyl)-1-oxo-3-(1H-pyrazol-4-yl)-2-(2,2,2-trifluoroethyl)-1,2,3,4-tetrahydroisoquinoline-4-carboxamide] reads 9 nM.

In the case of `O=C(Nc1cc(F)cc(OC(F)(F)F)c1)[C@H]1c2ccccc2C(=O)N(CC(F)(F)F)[C@@H]1c1cn[nH]c1` (racemic) [Example 38, N-(3-fluoro-5-(trifluoromethoxy)phenyl)-1-oxo-3-(1H-pyrazol-4-yl)-2-(2,2,2-trifluoroethyl)-1,2,3,4-tetrahydroisoquinoline-4-carboxamide], the EC50 worked out at 61 nM. Same read-out and setting: the result for `CC(C)CN1C(=O)c2ccccc2[C@H](C(=O)Nc2cc(Cl)cc(C#N)c2)[C@H]1c1cn[nH]c1` (racemic) [Example 7, N-(3-chloro-5-cyanophenyl)-2-isobutyl-1-oxo-3-(1H-pyrazol-4-yl)-1,2,3,4-tetrahydroisoquinoline-4-carboxamide] reads 3 nM. The same measure, in the same setting: the result for `CC(C)CN1C(=O)c2cc(F)ccc2[C@H](C(=O)Nc2cc(Cl)cc(C#N)c2)[C@H]1c1cnn(C)c1` (racemic) [Example 46, N-(3-chloro-5-cyanophenyl)-7-fluoro-2-isobutyl-3-(1-methyl-1H-pyrazol-4-yl)-1-oxo-1,2,3,4-tetrahydroisoquinoline-4-carboxamide] reads 3 nM; that for `CC(C)CN1C(=O)c2ccccc2[C@H](C(=O)Nc2cccc(OC(F)(F)F)c2)[C@H]1c1cnn(C)c1` (racemic) [Example 27, 2-isobutyl-3-(1-methyl-1H-pyrazol-4-yl)-1-oxo-N-(3-(trifluoromethoxy)phenyl)-1,2,3,4-tetrahydroisoquinoline-4-carboxamide], 8 nM. The same measure, in the same setting: the result for `N#Cc1cc(F)cc(NC(=O)[C@H]2c3ccccc3C(=O)N(CC(F)(F)F)[C@@H]2c2cccnc2)c1` (racemic) [Example 24, N-(3-cyano-5-fluorophenyl)-1-oxo-3-(pyridin-3-yl)-2-(2,2,2-trifluoroethyl)-1,2,3,4-tetrahydroisoquinoline-4-carboxamide] reads 38 nM. With `CC(C)CN1C(=O)c2ccccc2[C@H](C(=O)Nc2cc(Cl)cc(C#N)c2)[C@H]1c1cnn(C)c1` (racemic) [Example 9, N-(3-chloro-5-cyanophenyl)-2-isobutyl-3-(1-methyl-1H-pyrazol-4-yl)-1-oxo-1,2,3,4-tetrahydroisoquinoline-4-carboxamide], the EC50 stood at 8 nM. The same measure, in the same setting: the result for `CC(C)CN1C(=O)c2ccccc2[C@H](C(=O)Nc2cc(F)cc(C#N)c2)[C@H]1c1cnn(C)c1` (racemic) [Example 21, N-(3-cyano-5-fluorophenyl)-2-isobutyl-3-(1-methyl-1H-pyrazol-4-yl)-1-oxo-1,2,3,4-tetrahydroisoquinoline-4-carboxamide] reads 21 nM. On the same count and under the same terms, then `CC(C)CN1C(=O)c2ccc(F)cc2[C@H](C(=O)Nc2cccc(C#N)c2)[C@H]1c1cnn(C)c1` (racemic) [Example 47, N-(3-cyanophenyl)-6-fluoro-2-isobutyl-3-(1-methyl-1H-pyrazol-4-yl)-1-oxo-1,2,3,4-tetrahydroisoquinoline-4-carboxamide], with 7 nM; and `CC(C)CN1C(=O)c2ccccc2[C@H](C(=O)Nc2ccc(F)c(OC(F)(F)F)c2)[C@H]1c1cn[nH]c1` (racemic) [Example 31, N-(4-fluoro-3-(trifluoromethoxy)phenyl)-2-isobutyl-1-oxo-3-(1H-pyrazol-4-yl)-1,2,3,4-tetrahydroisoquinoline-4-carboxamide], with 13 nM.

Still in this assay, the particulars now being: separated enantiomers, assayed as described in 4a; listed as 2 l; read-out: Potency (nM, 3D7 strain).
Consider `N#Cc1cc(NC(=O)C2c3ccccc3C(=O)N(CC(F)(F)F)C2c2cn[nH]c2)ccc1F` (single isomer, unassigned) [Example 2 l-isomer], for which the EC50 was found to be 303 nM.

The assay is the same for the next values; noted with them: separated enantiomers, assayed as described in 4a; listed as 6 l; read-out: Potency (nM, 3D7 strain).
As for `N#Cc1cc(NC(=O)C2c3ccccc3C(=O)N(CC(F)(F)F)C2c2cccnc2)ccc1F` (single isomer, unassigned) [Example 6 l-isomer, l-N-(3-cyano-4-fluoro)-1-Oxo-3-pyridin-3-yl-2-(2,2,2-trifluoro-ethyl)-1,2,3,4-tetrahydro isoquinoline-4-carboxamide], the EC50 was 477 nM.
